Like-named read-outs stand apart in the source and are kept apart here.
Legend:
SARS-CoV-2 [1] = settings: for host cell viability, normalized to remdesivir alone (5 μM) / host cell viability (in words): infected Vero E6, 72 hours
[2] = tested on: SARS-CoV-2 virus [B.1.351]; assay type: in vivo, mice; settings: day 4
SARS-CoV-2 [3] = assay type: cell-based; settings: remdesivir alone, dose-dependent; control around 10^6 TCID50/mL
SARS-CoV-2 [4] = assay: microbe, parasite or virus in culture
[5] = tested on: SARS-CoV-2 virus [B.1.351]; assay type: in vivo, mice

SMILES: Cc1cc(O)c2c(=O)c3c(O)cc(O)c4c5c(O)cc(O)c6c(=O)c7c(O)cc(C)c8c1c2c(c34)c(c78)c65 [Hypericin]
- host cell viability, normalized to remdesivir alone (5 μM) (SARS-CoV-2 [1]; hypericin 1.563 μM, remdesivir 0 μM): 14.6%
- host cell viability, normalized to remdesivir alone (5 μM) (SARS-CoV-2 [1]; hypericin 3.125 μM, remdesivir 0 μM): 12.9%
- host cell viability, normalized to remdesivir alone (5 μM) (SARS-CoV-2 [1]; hypericin 6.25 μM, remdesivir 0 μM): 12.8%
- host cell viability, normalized to remdesivir alone (5 μM) (SARS-CoV-2 [1]; hypericin 12.5 μM, remdesivir 0 μM): 20.4%
- host cell viability, normalized to remdesivir alone (5 μM) (SARS-CoV-2 [1]; hypericin 25 μM, remdesivir 0 μM): 62.0%
- host cell viability, normalized to remdesivir alone (5 μM) (SARS-CoV-2 [1]; hypericin 50 μM, remdesivir 0 μM): 62.6%
- host cell viability, normalized to remdesivir alone (5 μM) (SARS-CoV-2 [1]; hypericin 100 μM, remdesivir 0 μM): 38.0%
- host cell viability (in words) (SARS-CoV-2 [1]; hypericin (25-50 μM) alone): modest improvements in host cell viability
- host cell viability (SARS-CoV-2 [1]; hypericin alone, 12.5-50 μM): 20-62%
- mice in which all infectious titers in lung were eliminated ([2]; Hypericin 20 mg/kg, pre-treatment from two days prior to infection): 5 out of 7

SMILES: CCC(CC)COC(=O)[C@H](C)N[P@](=O)(OC[C@H]1O[C@@](C#N)(c2ccc3c(N)ncnn23)[C@H](O)[C@@H]1O)Oc1ccccc1 [Remdesivir]
- host cell viability, normalized to remdesivir alone (5 μM) (SARS-CoV-2 [1]; hypericin 0 μM, remdesivir 0.3125 μM): 19.8%
- host cell viability, normalized to remdesivir alone (5 μM) (SARS-CoV-2 [1]; hypericin 0 μM, remdesivir 0.625 μM): 21.9%
- host cell viability, normalized to remdesivir alone (5 μM) (SARS-CoV-2 [1]; hypericin 0 μM, remdesivir 1.25 μM): 25.2%
- host cell viability, normalized to remdesivir alone (5 μM) (SARS-CoV-2 [1]; hypericin 0 μM, remdesivir 2.5 μM): 38.1%
- host cell viability (in words) (SARS-CoV-2 [1]; remdesivir (5 μM) alone): dose-dependently improved host cell viability
- viral titer of SARS-CoV-2 (SARS-CoV-2 [3]): zero
- infectious titers in lung compared to vehicle, in words ([2]; Remdesivir 10 mg/kg daily from day 1 post infection): did not impact infectious titers compared to vehicle
- mice in which all infectious titers in lung were eliminated ([2]; Remdesivir 25 mg/kg daily from day 1 post infection): 4 out of 7
- viability at 5 µM (SARS-CoV-2 [4]; Severe acute respiratory syndrome coronavirus 2, Vero C1008, 72 h, read-out: host cell viability, normalized to remdesivir alone (5 μM)): 100%
- viability at 1.25 µM (SARS-CoV-2 [4]; Severe acute respiratory syndrome coronavirus 2, Vero C1008, read-out: host cell viability): 26%
- infectious titers in lung, in words ([5]; remdesivir 25 mg/kg daily intraperitoneally, day 4 post infection): strongest antiviral effect in reducing infectious titer
- infectious titers in lung (plaque forming unit per mg of tissues), in words ([5]; remdesivir 5, 10 or 25 mg/kg daily intraperitoneally from day 1 post infection, day 4): dose-dependent effect on reducing infectious titers

— patent US20250375398A1
